Measured values as given in US20110071141A1, “Pesticidial Condensed-Ring Aryl Compounds” (Bayer CropScience AG, priority 2008, published 2011).
Like-named read-outs stand apart in the source and are kept apart here.

Key:
Format in all cases: in vivo
Aulacophora femoralis = test: whole plant or invertebrate; settings: in Cucumis sativus, 168 h, read-out: mortality (control efficacy)
Description: The test solution has been prepared as described in biological test example 1.
Cucumber leaves were immersed in a test solution that had been diluted to a predetermined concentration with water. The leaves were air-dried and then put in a plastic cup containing sterilized black soil. 5 Aulacophora femoralis second instar larvae were released in the cup.

Musca domestica = test: whole plant or invertebrate; settings: 48 h, read-out: activity (mortality in %)
Protocol: (§1) Solvent: dimethyl sulfoxide
Prior to the assay, a piece or kitchen sponge is soaked with a mixture of sugar and compound solution and placed into a container. 10 adults (Musca domestica) are placed into the container and closed with a perforated lid. After 2 days, mortality in % is determined. 100% means that all the flies have been killed; 0% means that none of the flies have been killed.

Lucilia cuprina larvae = test: whole plant or invertebrate; settings: 48 h, read-out: activity (mortality in %)
Protocol: as §1
Approximately 20-30 (Lucilia cuprina larvae) are transferred into a test tube containing 1 cm^3 of minced horse meat and 0.5 ml aqueous dilution of test compound. After 2 days, mortality in % is determined.

Ctenocephalides felis = test: whole plant or invertebrate; settings: 48 h, read-out: activity (mortality in %)
Protocol: as §1
Approximately 10 to 15 adult unfed (Ctenocepahlides felis) are placed in flea chambers. […] The blood chamber is heated to 37° C. whereas the flea chamber is kept at room temperature. After 2 days, mortality in % is determined. 100% means that all the fleas have been killed; 0% means that none of the fleas have been killed.

Boophilus microplus [1] = test: whole plant or invertebrate; settings: Rhipicephalus microplus, 168 h, read-out: activity (mortality in %; 100% means all eggs infertile)
Protocol: as §1
Five adult engorged female ticks (Boophilus microplus) are injected with compound solution into the abdomen. Ticks are transferred into replica plates and incubated in a climate chamber for a period of time. Egg deposition of fertile eggs is monitored. After 7 days, mortality in % is determined. 100% means that all eggs are infertile; 0% means that all eggs are fertile.

Boophilus microplus [2] = test: Boophilus microplus test (dip); settings: Rhipicephalus microplus, 168 h, read-out: activity (mortality in %)
Protocol: as §1
Eight to ten adult engorged female Boophilus microplus ticks are placed in perforated plastic beakers and immersed in aqueous compound solution for one minute. Ticks are transferred to a filter paper in a plastic tray. Egg deposition of fertile eggs is monitored after. After 7 days, mortality in % is determined. 100% means that all the ticks have been killed; 0% means that none of the ticks have been killed.

Phaedon cochleariae = Phaedon cochleariae test (spray application); settings: in Brassica rapa, foliar, 168 h, read-out: activity (mortality in %)
Protocol: Solvent: 78.0 parts by weight of acetone • • 1.5 parts by weight of dimethylformamide Emulsifier: 0.5 parts by weight of alkylaryl polyglycolether
To produce a suitable preparation of active compound, 1 part by weight of active compound is mixed with the stated amount of solvent and emulsifier, and the concentrate is diluted with emulsifier-containing water to the desired concentration. Chinese cabbage (Brassica pekinesis) leaf-disks are sprayed with a preparation of the active ingredient of the desired concentration. Once dry, the leaf disks are infested with mustard beetle larvae (Phaedon cochleariae).
After 7 days, mortality in % is determined. 100% means that all beetle larvae have been killed and 0% means that none of the beetle larvae have been killed.

Spodoptera frugiperda = Spodoptera frugiperda test (spray application); settings: 168 h, application rate 500 g/ha, sprayed maize leaf sections, larvae, 7 days
Description: Solvent: 78.0 parts by weight acetone • 1.5 parts by weight dimethylformamide Wetting agent 0.5 parts by weight alkylarylpolyglcolether
To produce a suitable preparation of the active compound, 1 part by weight of active compound is mixed with the stated amount of solvent and emulsifier, and the concentrate is dilutes with emulsifier-containing water to the desired concentration.
Maize (Zea mais) leaf sections are sprayed with a preparation of the active ingredient of the desired concentration. Once dry, the leaf sections are infested with fall armyworm larvae (Spodoptera frugiperda). After 7 days, mortality in % is determined. 100% means that all caterpillars have been killed and 0% means that none of the caterpillars have been killed.

Tetranychus urticae = test: Test on Tetranychus urticae (spray test); settings: active compound concentration 100 ppm; adult mites on pinto bean sprayed; 7 days
Protocol: The test solution has been prepared as described in biological test example 1. 50 to 100 adult Tetranychus urticae were placed on pinto bean leaves at true leaf stage having two main leaves that had been grown in a pot (6 cm diameter). After 1 day, a generous amount of the test solution which has been diluted with water to the predetermined concentration was sprayed thereto using a spray gun.
After keeping the pot in a green house for 7 days, acaricidal ratio was calculated. 100% means that all the mites have been killed; 0% means that none of the mites have been killed.

Row | Structure (SMILES) | mortality at 100 ppm (Aulacophora femoralis) [%] | mortality at 100 ppm (Musca domestica) [%] | mortality at 100 ppm (Lucilia cuprina larvae; in Equus caballus) [%] | mortality at 100 ppm (Ctenocephalides felis; in Bos taurus) [%] | mortality at 0.02 mg (Boophilus microplus [1]) [%] | further results
1 | O=C1OCc2cc(C3=NOC(c4cc(Cl)cc(Cl)c4)(C(F)(F)F)C3)ccc21 (centres unmarked) [Example 1-2, 5-[5-(3,5-dichlorophenyl)-5-(trifluoromethyl)-4,5-dihydroisoxazol-3-yl]-2-benzofuran-1(3H)-one] | 100 | ≥ 80 | ≥ 80 | ≥ 80 | ≥ 80 | mortality at 100 ppm (Boophilus microplus [2]): ≥ 80%; mortality at 500 g/ha (Phaedon cochleariae): 80%; mortality at 500 g/ha (Spodoptera frugiperda): ≥ 80%
2 | O=C1c2ccc(C3=NOC(c4cc(Cl)cc(Cl)c4)(C(F)(F)F)C3)cc2CN1Cc1ccccn1 (centres unmarked) [Example 1-58] |  |  |  |  |  | mortality (acaricidal ratio) (Tetranychus urticae): at least 98%
3 | FC(F)(F)C1(c2cc(Cl)cc(Cl)c2)CC(c2ccc3c(c2)COC3)=NO1 (centres unmarked) [Example 1-131, 5-(3,5-dichlorophenyl)-3-(1,3-dihydro-2-benzofuran-5-yl)-5-(trifluoromethyl)-4,5-dihydroisoxazole] | 100 | ≥ 80 | ≥ 80 | ≥ 80 | ≥ 80 | 
4 | CC(=O)N1Cc2ccc(C3=NOC(c4cc(Cl)cc(Cl)c4)(C(F)(F)F)C3)cc2C1 (centres unmarked) [Example 1-151, 1-{5-[5-(3,5-dichlorophenyl)-5-(trifluoromethyl)-4,5-dihydroisoxazol-3-yl]-1,3-dihydro-2H-isoindol-2-yl}ethanone] | 100 |  | ≥ 80 |  | ≥ 80 | 
5 | CC(=O)N1Cc2cc(C3=NOC(c4cc(Cl)cc(Cl)c4)(C(F)(F)F)C3)ccc2C1=O (centres unmarked) [Example 1-221, 2-acetyl-5-[5-(3,5-dichlorophenyl)-5-(trifluoromethyl)-4,5-dihydroisoxazol-3-yl]-2,3-dihydro-1H-isoindol-1-one] | 100 |  |  |  |  | 
6 | N=C1OCc2cc(C3=NOC(c4cc(Cl)cc(Cl)c4)(C(F)(F)F)C3)ccc21 (centres unmarked) [Example 1-232, 5-[5-(3,5-dichlorophenyl)-5-(trifluoromethyl)-4,5-dihydroisoxazol-3-yl]-2-benzofuran-1(3H)-imine] | 100 | ≥ 80 | ≥ 80 | ≥ 80 | ≥ 80 | 
7 | CC(=O)/N=C1\c2ccc(C3=NOC(c4cc(Cl)cc(Cl)c4)(C(F)(F)F)C3)cc2CN1Cc1ccccn1 (centres unmarked) [Example 1-235, N-[(1E)-5-[5-(3,5-dichlorophenyl)-5-(trifluoromethyl)-4,5-dihydroisoxazol-3-yl]-2-(pyridin-2-ylmethyl)-2,3-dihydro-1H-isoindol-1-ylinden]acetamide] |  | ≥ 80 | ≥ 80 | ≥ 80 | ≥ 80 | 
8 | N#Cc1ccc2cc(C3=NOC(c4cc(Cl)cc(Cl)c4)(C(F)(F)F)C3)ccc2n1 (centres unmarked) [Example 1-255, 6-[5-(3,5-dichlorophenyl)-5-(trifluoromethyl)-4,5-dihydroisoxazol-3-yl]quinolin-2-carbonitrile] |  | ≥ 80 | ≥ 80 | ≥ 80 | ≥ 80 | 
9 | CC(=O)NC1CCc2cc(C3=NOC(c4cc(Cl)cc(Cl)c4)(C(F)(F)F)C3)ccc21 (centres unmarked) [Example 3-3, N-{5-[5-(3,5-dichlorophenyl)-5-(trifluoromethyl)-4,5-dihydroisoxazol-3-yl]-2,3-dihydro-1H-inden-1-yl}acetamide] | 100 | ≥ 80 | ≥ 80 | ≥ 80 | ≥ 80 | mortality at 100 ppm (Boophilus microplus [2]): ≥ 80%
10 | CCNC(=O)NC1CCc2cc(C3=NCC(c4cc(Cl)cc(Cl)c4)(C(F)(F)F)C3)ccc21 (centres unmarked) [Example 3-112, 1-{5-[3-(3,5-dichlorophenyl)-3-(trifluoromethyl)-3,4-dihydro-2H-pyrrol-5-yl]-2,3-dihydro-1H-inden-1-yl}-3-ethylurea] | 100 |  |  |  |  | mortality at 100 ppm (Musca domestica; application rate 100 ppm, adults, 2 days): ≥ 80%; mortality at 100 ppm (Lucilia cuprina larvae; application rate 100 ppm, larvae in minced horse meat, 2 days): ≥ 80%; mortality at 100 ppm (Ctenocephalides felis; application rate 100 ppm in cattle blood, adult unfed fleas, 2 days): ≥ 80%; mortality at 0.02 mg (Boophilus microplus [1]; application rate 20 μg/animal injected, adult engorged female ticks, 7 days): ≥ 80%; mortality at 100 ppm (Boophilus microplus [2]; application rate 100 ppm, adult engorged female ticks immersed one minute, 7 days): ≥ 80%
11 | NC1CCCc2cc(C3=NOC(c4cc(Cl)cc(Cl)c4)(C(F)(F)F)C3)ccc21 (centres unmarked) [Example 3-211, 6-[5-(3,5-dichlorophenyl)-5-(trifluoromethyl)-4,5-dihydroisoxazol-3-yl]-1,2,3,4-tetrahydronaphthalen-1-amine] | 100 |  |  |  | ≥ 80 | 
12 | CCNC(=O)N1CCc2cc(C3=NOC(c4cc(Cl)cc(Cl)c4)(C(F)(F)F)C3)ccc21 (centres unmarked) [Example 3-638, 5-[5-(3,5-dichlorophenyl)-5-(trifluoromethyl)-4,5-dihydroisoxazol-3-yl]-N-ethyl-2,3-dihydro-1H-indol-1-carboxamide] | 100 | ≥ 80 | ≥ 80 | ≥ 80 | ≥ 80 | 
